Consider 3 compounds from patent US20220031871A1, “ANTIBODIES FOR CHELATED RADIONUCLIDES AND CLEARING AGENTS” (Hoffmann-La Roche Inc., priority 2018, published 2022).

A short description of data set [1]: Stability of metal-DOTAM in blood (spontaneous Ca-DOTAM formation). In kind it is in vitro ADME, mouse. An excerpt: (§1) The initial choice for quenching was Cu, thus replacing unchelated DOTAM with quenched, non-competing Cu-DOTAM, and a large number of studies within the CEA-PRIT program were executed using this condition. However, it was later discovered that the Cu-DOTAM complex was, in fact, not stable in vivo, and a study was undertaken to assess its stability compared with alternative quenching ions in human and mouse serum, plasma, and blood.

Assay in data set [2]: as above
Type of data set: in vitro ADME, human.
Text: as §1

Where two headings read alike, the source gives them in different places.

In the case of `NC(=O)CN1CCN(CC(N)=O)CCN(CC(N)=O)CCN(CC(N)=O)CC1.[Pb+2]` [Pb-DOTAM], the “spontaneous Ca-DOTAM formation” value in data set [1] (mouse blood, 35 minutes p.i.) is 4%; in data set [2] (human blood, 35 minutes p.i.), 4%.
In the case of `NC(=O)CN1CCN(CC(N)=O)CCN(CC(N)=O)CCN(CC(N)=O)CC1.[Cu+2]` [Cu-DOTAM], the “spontaneous Ca-DOTAM formation” value in data set [1] is listed as “approximately 25%”; in data set [2] it was ~30%.
In the same order, the values of `NC(=O)CN1CCN(CC(N)=O)CCN(CC(N)=O)CCN(CC(N)=O)CC1.[Zn+2]` [Zn-DOTAM] are 0% and 0%.
